Test results: US12453778B2, “Incremental dose finding in controlled-release PTH compounds” (Ascendis Pharma Bone Diseases A/S, priority 2016, dated 2025)
Where two headings read alike, the source gives them in different places.

What was measured:
[1] = Dose range finding / dose adjustment study with daily subcutaneous injections of TransCon PTH; parameters: time of peak calcium concentration postdose / increases in calcium to pre-study levels / calcium increases: dose or concentration left out as unconfirmed; details: for sCa compared to pre-study levels: severe hypercalcaemic levels
Experimental: Dose Range Finding Study—Dose Adjustment Study in Cynomolgus Monkeys with Daily Subcutaneous Injections with TransCon PTH
This study was conducted in order to test the hypothesis of performing dose adjustments with TransCon PTH in 25% increments in response to hypocalcemia or hypercalcemia. The study was performed in male and female Cynomolgus monkeys. Four groups with one male and one female animal in each were dosed for four weeks starting at doses 0.2, 0.5, 1.0 and 2.0 μg/kg/day, respectively. Serum calcium (sCa) levels in the animals were measured pre-dose and post-dose on days -6, 1, 3, 7, 8, 12, 14, 16, 19, 23, 26, 28 and 29.

[2] = pump delivery, over 6-months; cited from earlier work
[3] = cited from earlier work; for osteosarcoma rate: rats, daily injections
[4] = cited from earlier work
[5] = 6-year follow-up; cited from earlier work

Compound: TransCon PTH: controlled-release PTH compound administered subcutaneously to cynomolgus monkeys; not tied to a numbered conjugate
- sCa compared to pre-study levels ([1]; Day 3, female dosed at 2.0 μg/kg/day): ≤ 1.34 ×
- sCa compared to pre-study levels ([1]; Day 3, male dosed at 2.0 μg/kg/day): up to 1.42 ×
- time of peak calcium concentration postdose ([1]; Day 23, male): 4 h
- increases in calcium to pre-study levels ([1]; Day 26, male and female): up to 1.17 ×
- calcium increases ([1]; Day 29, both sexes): still present
- tolerability ([1]; daily subcutaneous administration at 0.2, 0.5 and 1.0 jag/kg/day for 28 days): well tolerated

Compound: CC[C@H](C)[C@H](NC(=O)[C@H](CCC(=O)O)NC(=O)[C@H](CO)NC(=O)[C@@H](NC(=O)[C@@H](N)CO)C(C)C)C(=O)N[C@@H](CCC(N)=O)C(=O)N[C@@H](CC(C)C)C(=O)N[C@@H](CCSC)C(=O)N[C@@H](Cc1cnc[nH]1)C(=O)N[C@@H](CC(N)=O)C(=O)N[C@@H](CC(C)C)C(=O)NCC(=O)N[C@@H](CCCCN)C(=O)N[C@@H](Cc1cnc[nH]1)C(=O)N[C@@H](CC(C)C)C(=O)N[C@@H](CC(N)=O)C(=O)N[C@@H](CO)C(=O)N[C@@H](CCSC)C(=O)N[C@@H](CCC(=O)O)C(=O)N[C@@H](CCCN=C(N)N)C(=O)N[C@H](C(=O)N[C@@H](CCC(=O)O)C(=O)N[C@@H](Cc1c[nH]c2ccccc12)C(=O)N[C@@H](CC(C)C)C(=O)N[C@@H](CCCN=C(N)N)C(=O)N[C@@H](CCCCN)C(=O)N[C@@H](CCCCN)C(=O)N[C@@H](CC(C)C)C(=O)N[C@@H](CCC(N)=O)C(=O)N[C@@H](CC(=O)O)C(=O)N[C@H](C(=O)N[C@@H](Cc1cnc[nH]1)C(=O)N[C@@H](CC(N)=O)C(=O)N[C@@H](Cc1ccccc1)C(=O)O)C(C)C)C(C)C [PTH(1-34)]
- calcium levels [2]: normal, steady state calcium levels with minimal fluctuation
- osteosarcoma rate [3]: dose dependent increase

Compound: PTH(1-84): Natpara, PTH(1-84), approved 2015 for once-daily subcutaneous injection in hypoparathyroidism; SEQ ID NO: 1
- urinary calcium excretion ([4]; 2-8 hours after injection): reduced
- urinary phosphate excretion ([4]; after injection): increased only during the first 8 hours
- patients developing hypercalcemia at one or more measurements ([4]; during a 24-hour period after injection): 71%
- participants achieving normal blood calcium levels on reduced doses of calcium supplements and active forms of vitamin D ([4]; once-daily subcutaneous injection, pivotal trial): 42%
- urinary calcium excretion ([4]; over the 24-hour period): did not change
- BMD by DXA [5]: increases in lumbar spine and declines in distal ⅓ radius
- bone turnover markers [5]: remained greater than pretreatment values
- deaths in high dose group ([3]; high dose rats, dosing discontinued, primarily from metastatic osteosarcoma): excessive deaths
- osteosarcoma rate [3]: dose dependent increase
